Where no end group is shown, it is not given here. [ ]: non-standard residue; d: D form. Ava = NCCCCC(=O)O

This assay concerns FR74-specific T cells. Briefly: Proliferation (thymidine incorporation) of T cells generated ex vivo with polypeptides. The format is cell-based, FVB/N mice. As to conditions: thymidine incorporation against native FR74; FIG. 5. The protocol:
FIG. 5 is a graph plotting proliferation (as measured by thymidine incorporation (CPM)) of T cells treated with the indicated polypeptides. Epitope nesting activates high affinity antigen-specific T cells. T cells were tested for incorporation against native FR74 polypeptide at various concentrations. Each data point is the mean of 3 determinations.
In terms of proliferation, only the dual modified polypeptide was able to generate T cells that were able to proliferate at 10^−9 g/mL (FIG. 5).
In order to determine whether furin cleavage is required, two methods are used: furin insensitive linkers and furin inhibitors. Blockade of enhanced ex vivo expansion mediated by the DC3 peptide using these two methods is powerful evidence, outside of a furin knockout mouse, that furin is required for the actions of DC3. Although it has already been shown that DC3 must be linked to antigen, as a control T cells are expanded using free FR74 mixed with free DC3. To test the role of furin with furin-insensitive linkers, RARR (SEQ ID NO:4) is replaced with VRVV (SEQ ID NO:41) with the polypeptides FR74.1, FR74.3, and FR74.8 as shown in FIG. 17. In parallel with these cultures, cultures are included in which inhibitors are included. […] On day 5, CPG is added to the cultures at 1 μg/mL, and the cells are ready for T cell induction on day 6. […]
(Uptake of a labelled nucleoside into DNA is a usual measure of proliferation.)

Regarding “FR74.4: dual conjugated polypeptide: FR74 nested between Ii-key and DC3 (Ac-LRMK[Ava]KDISYLYRFNWNHCGRARRFYPSYHSTPQRP)”, the “lowest peptide concentration at which generated T cells proliferate” value is 10^−9 g/mL.

The record behind these values is patent US8858952B2, “Methods and materials for generating T cells” (Mayo Foundation for Medical Education and Research, priority 2009, dated 2014).
